According to US5840893A, “Compounds for treating infectious diseases” (priority 1996, dated 1998):
“Also recorded” adds a separate entry of the source. Read-outs that look alike come from different tables or passages of the source.

How the values were obtained:
nuclear localization = details: literature; cited from earlier work
HIV-1 = assay: Inhibition of HIV-1 replication in cultured macrophages (Table I); assay type: cell-based; details: Human immunodeficiency virus 1, Macrophage; 50% inhibition of viral growth, RT or p24, macrophages
Procedure: A quantitative measurement of the activity of the compounds of the invention to block the replication of HIV-1 in non-dividing cells can be determined by culture of a macrophage-tropic strain of HIV-1 on peripheral blood-derived macrophages. The cells are cultured for 5-6 days prior to infection in a medium consisting of DMEM supplemented with 10% type A/B human serum and 200 U/ml Macrophage Colony Stimulating Factor, with half the medium changed after 3 days, to reach a density of about 10^6 cells per 5 ml well. A macrophage-tropic viral stock may be grown on these cells. The concentration of infectious particles in the stock is estimated by measurement of p24 antigen concentration.
To test the effect of compounds of the invention on HIV- 1 infection in the above-described culture system, the medium is removed and replaced with medium containing HIV-1 at a concentration of 1 ng of p24 (10^4 TCID50 /ml (TCID=tissue culture infectious doses)) and a known concentration of the compound of the invention (the inhibitor). After 24 hours, the cultures are washed to remove non-adherent virus and the culture is re-fed with medium containing the inhibitor at the desired concentration. The amount of replication of HIV-1 is estimated by an assay of the reverse transcriptase activity or by an assay of the concentration of p24 antigen in the culture medium every 2-3 days throughout the post-infection period. In a preferred embodiment the anti-HIV potency of the candidate drug is measured by comparison of the concentration of reverse transcriptase (RT) or of p24 antigen in the medium of the treated and control cultures at the time of the peak of these values in non-treated control cultures, that is about day 5 or 6 post-infection. Repetition at various levels of inhibitor allows for the calculation of the concentration of inhibitor that achieves 50% inhibition of viral growth, IC50. Table I discloses the IC50 of various inhibitors.

mice = assay: Toxicity study: median lethal dose in mice, i.p.; assay type: in vivo
Procedure: The doses of compounds of the invention found to be lethal to 50% of the mice (LD50) were determined by intraperitoneal injection of groups of five animals with increasing doses of each compound. CNI-0294 was administered from 0, 2, 10, 20, 40, 80, 160, 320, 640, 1280 mg/kg in 0.5 ml of water/HCl; CNI-1594 at 0, 2.4, 5, 10, 20, 40, 80 mg/kg in 0.5 ml of water/HCl; CNI-1794 at 0, 20, 50, 80 mg/kg in 0.5 ml of water/HCl; and CNI-1894 at 0, 10, 20, 40, 80, 240, 480, 960 mg/kg in water/HCl. […] The percentage of animals in each group which died were utilized to calculate the LD50 by non-linear curve fitting with the Enzfit software (Elsevier Bioscience; Cambridge, UK) programmed with the Chou equation (Chou 1976, J Theor Biol 39:253-276)).
The compounds (FIGS. 4A-E), were screened for toxicity via a modified LD50 assay procedure as described above in an outbred strain of mice.

in vitro = in vitro ADME, mouse (ND4 Swiss Webster); details: for number of metabolites: mouse liver post-mitochondrial supernatant, NADPH; for metabolised at 1 h: mouse, liver post-mitochondrial supernatant, 60 min incubation, by peak area, read-out: drug altered (metabolic conversion)
Procedure: Several female ND4 Swiss Webster mice were euthanized by carbon dioxide inhalation and the livers excised and rinsed with ice cold phosphate buffered saline (pH 7.4). The livers were minced, gently homogenized in 50 mM phosphate buffer (pH 7.4) with a Dounce homogenizer, and centrifuged at 9600×g for 20 min. The post-mitochondrial supernatant was kept, glycerol added to 20%, and frozen at -70° C. in 1.0 ml aliquots until used. For each incubation, 1.0 ml of a 1.0 mg/ml drug solution was added to 3.0 ml of 50 mM phosphate buffer (pH 7.4), 1.0 ml of 2 mg/ml NADPH in 50 mM phosphate (pH 7.4), and 1.0 ml of the post-mitochondrial supernatant. Five hundred μl of each incubate was then immediately transferred to an ice-cold tube to provide the zero-time sample, and addition 500 μl aliquots removed to ice-cold tubes at 8, 15, 30, and 60 min. The samples were then extracted, and analyzed by HPLC as described in section 7.1. Control incubations were also performed where drug or post-mitochondrial supernatant was omitted. […] Peaks in the CNI compound incubations which increased over time, and were not present in control samples lacking the enzyme preparation were treated as putative metabolites.

[1] = tested on: Plasmodium falciparum clone Dd2; assay: Antimalarial activity in vitro, hypoxanthine incorporation, clone Dd2; assay type: cell-based; details: for IC50: Plasmodium falciparum, DD2, read-out: IC50 ± standard deviation
Procedure: The antimalarial activity of the compounds was determined essentially as described in Desjardins et al. supra. Fifty Al of various concentrations of a compound of the invention, chloroquine, or pyrimethamine were added to the wells of microtiter plates, followed by 200 Al of ring-stage, synchronized, P. falciparum-infected erythrocytes (final hematocrit=1.5%, final parasitemia=1-5%). The plates were incubated for 24 hr in a candle jar kept at 37° C., and then 25 μl of [^3 H]-hypoxanthine (Amersham, Arlington Heights, Ill.; 2.5 μl Ci/well) was added. The plates were then incubated for a further 24 hr, before harvesting onto Unifilter-96 GF/C filter-microplates (Packard; Meriden, Conn.). Twenty-five μl of Microscint scintillation fluid (Packard) was added to each well of the filter-microplate, which was subsequently counted in a Top-count microplate scintillation counter (Packard). The percent of [^3 H] -hypoxanthine uptake relative to control infect-erythrocytes was used to determine the IC50 value for the compounds by non-linear regression for LD50 determination.
The Dd2 clone of P. falciparum, which was both chloroquine and pyrimethamine resistant, was utilized to compare the antimalarial activity of the remaining CNI compounds (Table VIII).

[2] = for Clearance: Table IV, measured in a 25 gr mouse
Procedure: (§1) Standard addition curves for each test compound were constructed by adding increased amounts of drug to mouse or human A^+ plasma (Long Island Blood Services; Melville, N.Y.). […] The eluted sample was reduced to dryness in a rotary evaporator and resuspended in 1.0 ml Buffer A.
(§2) Female ND4 Swiss Webster mice (21-24 g) were obtained from Harlan Sprague Dawley (Indianapolis, Ind.) and randomly placed in groups of five in cages with free access to food and water. […] The other CNI compounds were administered intraperitoneally or by oral gavage as a solution in water titrated with sufficient HCl to dissolve the drug. At various time points, ranging from 5 min to 4 days, a single group of animals was euthanized by carbon dioxide inhalation and bled by cardiac puncture using heparin as an anticoagulant. The blood from the five mice in the group was pooled and centrifuged at 14000×g for 10 min. The volume of plasma was measured, and equal volume of Buffer A added, and the mixture extracted and analyzed as described above, except that the dried eluates were resuspended in 200 μl Buffer A and 100 μl was injected onto the high performance liquid chromatography (HPLC) system.
(§3) The area under the plasma concentration-time curve (AUC) was determined, and bioavailability was measured as AUCoral /AUCi.p.. […] The volume of distribution (VD) was calculated as dose/B, and the total clearance rate (Cltot) calculated as β*VD. Cmax and tmax are the maximal plasma concentration and time of this measurement, respectively.

in vivo = details: mouse, plasma, ip
Procedure: as §1, §2, §3

For `Nc1nc2c(ncn2[C@@H]2O[C@H](COP(=O)(O)OP(=O)(O)OP(O)(O)=S)[C@@H](O)[C@H]2O)c(=O)[nH]1` [(γ-S)GTP], the “inhibition of nuclear localization” value (nuclear localization) is given as “blocked”.
For `CC(=O)c1cc(Nc2cc(C)nc(N)n2)cc(C(C)=O)c1` [Compound No. 11, 2-amino-4-(3,5-diacetylphenyl)amino-6-methylpyrimidine], the IC50 (HIV-1) was 0.05 µM, the “LD50 (median lethal dose)” value (mice) was over 160 mg/kg and the tolerability (mice) was “also well tolerated”. For the same compound, the number of metabolites (in vitro) was “three minor and one major metabolite”, the metabolised at 1 h (in vitro) was 65.2% and the IC50 [1] was 20.3 ± 1.62 µM. The “fold less active than CNI-0294” value ([1]; clone Dd2) was “approximately 5 fold”, the Clearance [2] was 16.50 mL/min and the “A (zero time intercept, distribution phase)” value ([2]; i.p., 50 mg/kg, water) was 5.22 µg/mL. For the same compound, the “B (zero time intercept, elimination phase)” value ([2]; i.p., 50 mg/kg, water) was 0.14 µg/mL, the t1/2α ([2]; i.p., 50 mg/kg, water) was 0.38 h and the t1/2β ([2]; i.p., 50 mg/kg, water) was 3.65 h. The α ([2]; i.p., 50 mg/kg, water) was 1.83 h⁻¹, the “time drug was detectable in plasma” value ([2]; oral 50 mg/kg) was “at least 6 hr” and the relative bioavailability ([2]; oral vs i.p.) was 15%. The Bioavaliability ([2]; oral, 50 mg/kg, water, AUCoral/AUCi.p.) was 0.15, the relative bioavailability ([2]; single 50 mg/kg dose, AUCoral against AUCi.p.) was 15% and the CL/F (in vivo; 50 mg/kg) was 16.5 mL/min. For the same compound, the k el (in vivo; 50 mg/kg) was 5.28e-05 s⁻¹.
For `CC(=O)c1cccc(Nc2cc(C)nc(N)n2)c1` [Compound No. 15, 4-(3-acetylphenyl)amino-2-amino-6-methylpyrimidine], the IC50 (HIV-1) was 0.015 µM, the “LD50 (median lethal dose)” value (mice) was 49.04 ± 0.08 mg/kg and the tolerability (mice) was “appreciably more lethal”. For the same compound, the “signs and time of toxic reactions / death” value (mice; listed as CNI-1594) was “death occurring in minutes and the animals displaying signs of acute neurotoxicity; also recorded: suggested a lethal neurotoxicity”, the number of metabolites (in vitro) was “three minor and one major metabolite” and the metabolised at 1 h (in vitro) was 11.7%. The IC50 [1] was 23.7 ± 0.59 µM, the “IC50 relative to CNI-1194 and CNI-4594” value ([1]; clone Dd2) was “equal to that for CNI-1194 or CNI-4594” and the Clearance [2] was 26.40 mL/min. The “A (zero time intercept, distribution phase)” value ([2]; i.p., 20 mg/kg, water) was 1.10 µg/mL, the “B (zero time intercept, elimination phase)” value ([2]; i.p., 20 mg/kg, water) was 0.01 µg/mL and the VD ([2]; i.p., 20 mg/kg, water) was 39.60 L. For the same compound, the t1/2α ([2]; i.p., 20 mg/kg, water) was 0.32 h, the t1/2β ([2]; i.p., 20 mg/kg, water) was 17.33 h and the α ([2]; i.p., 20 mg/kg, water) was 2.14 h⁻¹. It also gave a CL/F (in vivo; 20 mg/kg) of 26.4 mL/min and a k el (in vivo; 20 mg/kg) of 1.11e-05 s⁻¹.
